{"source": "patent US11896568B2", "about": "“Compositions and methods for treating patients suffering from glioma or leukemia” (University of Cincinnati, priority 2016, dated 2024)", "key": {"[1]": {"tested_on": "R-2HG-resistant leukemic cells", "assay": "JQ1 with R-2HG in resistant leukemic cells, cell viability", "type": "cell-based, human", "conditions": "inhibition of MYC signaling by JQ1", "protocol": "Cell proliferation/viability, cell cycle and cell apoptosis assays. To study the effects of R-2HG, FTO, or IDH1^R132H on viability, the cells were seeded into 96-well plates at the concentration of 5,000-10,000 cells/well in triplicates and MTT (G4000, Promega) was used to assess cell proliferation and viability following the manufacturer's instructions. For cell cycle analysis, Propidium iodide (PI) DNA staining was used to assess the cells at G0/G1, S and G2/M phases, while Hoechst 33342 and Pyronin Y were used to determine the cells at G0, G1 and S/G2/M stages. For the PI staining, cells were resuspended in Krishan's reagent (0.05 mg/ml PI, 0.1% trisodium citrate, 0.02 mg/ml ribonuclease A, 0.3% NP-40), incubated at 37° C. for 30 minutes and then applied to the flow cytometer.; For Hoechst/Pyronin Y staining, the cells were suspended in cell culture medium, incubated at 37° C. for 45 minutes with existence of 10 ug/mL Hoechst 33342 and further incubated at 37° C. for 15 minutes with existence of Pyronin Y before flow cytometry. Cell apoptosis assay was conducted with FITC Annexin V Apoptosis Detection Kit I (BD Pharmingen) according to the manufacturer's instructions."}, "[2]": {"tested_on": "Primary AML cells with IDH mutations", "assay": "JQ1 sensitivity of primary AML cells", "type": "cell-based, human", "conditions": "\"often\""}}}
{"compound": "Cc1sc2c(c1C)C(c1ccc(Cl)cc1)=N[C@@H](CC(=O)OC(C)(C)C)c1nnc(C)n1-2", "note": "[JQ1]", "values": [{"measurement": "sensitivity of R-2HG-resistant leukemic cells to exogenous R-2HG or IDH1^R132H", "setting": "[1]", "value": "notably increased sensitivity"}, {"measurement": "IC50", "setting": "[2]", "value": "< 1000", "unit": "nM"}]}
